Like-named read-outs stand apart in the source and are kept apart here.
Key:
[1] = Pyrene fluorescence spectroscopy (micelle formation, CMC determination); assay type: physicochemical; details: pyrene 7.5 µM
Experimental: Pyrene is a lipophilic fluorescent probe often used to determine the critical micellar concentration (CMC) of surfactants. Indeed, it has the interesting feature of being sensitive to the polarity of its environment and partitioning into micelles leading to an hyperchromicity. First, 40 mg of pyrene were dissolved into 10 mL of ethanol, this solution was diluted in water to achieve a stock solution with a concentration of 7.5 µM. This stock solution was used as solvent to prepare PS80 and NaHA solutions of different concentrations in triplicate. Fluorescence measurements were performed using a Varian Cary Eclipse fluorescence spectrophotometer and processed with the Cary Eclipse software version 1.1.132 (Agilent Technologies, Santa Clara, CA, USA). The data were acquired using an excitation wavelength of 230 nm with a 20 nm slit and by recording an emission scan from 350 to 450 nm with a 2.5 nm slit. Peaks 1 and 3, used to determine the fluorescence ratio I1/I3, were at approximately 372 and 383 nm, respectively. PS80 CMC was determined using a sigmoidal non-linear variable slope regression performed using GraphPad Prism version 8.0.2 for windows (GraphPad Software, San Diego, CA, USA). CMC was considered as the abscissa of the point at which the top of the sigmoid and the tangent to the inflection point crossed.

[2] = design: method as in earlier work; details: fluorescence-based method using pyrene-3-carboxaldehyde; cited from earlier work
[3] = design: method as in doi:10.1007/s11743-000-0113-4; details: surface tension measurement; cited from earlier work
[4] = Differential scanning calorimetry of travoprost:excipient blends; assay type: physicochemical
Experimental: The differential scanning calorimetry (DSC) studies were performed using a DSC 3 thermal analysis device (Mettler-Toledo GmbH, Greinfensee, Switzerland) calibrated upstream with high-purity zinc (99.99%, Tfus = 419.6 ± 0.7 °C, ΔfusH = 107.5 ± 3.2 J.g^−1), high-purity indium (99.99%, Tfus = 156.6 ± 0.3 °C, ΔfusH = 28.45 ± 0.60 J.g^−1) and controlled with both, and Milli-Q water (Merck Millipore, Burlington, MA, USA). Each sample was introduced in a 100 µL aluminum pan which was hermetically sealed afterwards. The conditions of the sample preparation, as well as the applied temperature program, were strictly identical to avoid any thermal history dependence of the samples. The cycle, performed twice on each sample, was freezing from ambient temperature to −80 °C at a rate of 5 °C/min, then holding for 3 min at −80 °C, then heating to 25 °C, at a rate of 5 °C/min under a 60 mL/min dry air flow. Travoprost, NaHA and PS80 were analyzed either alone or as binary drug:excipient blends at different weight ratios (1:3, 1:1 and 3:1, respectively). Measurements were performed on 3 independent samples (n = 3). Thermogram evaluation was performed using STARe version 16.30 (Mettler-Toledo GmbH, Greinfensee, Switzerland).

[5] = design: method as in doi:10.1002/etc.5620171002; details: cited from earlier work
[6] = Travoprost:Excipient mass ratio 1:0 (travoprost alone), n = 3
[7] = Travoprost:Polysorbate 80 mass ratio 1:1
[8] = Travoprost:Polysorbate 80 mass ratio 1:3
[9] = Travoprost:Polysorbate 80 mass ratio 3:1
[10] = Travoprost:Sodium Hyaluronate mass ratio 1:1
[11] = Travoprost:Sodium Hyaluronate mass ratio 1:3
[12] = Travoprost:Sodium Hyaluronate mass ratio 3:1

Polysorbate 80 [PS80]
I1/I3 fluorescence ratio of pyrene with increasing excipient concentration [1]: decrease
CMC [2]: 0.015 mM
CMC [3]: 0.018 mM

CC(C)OC(=O)CCC/C=C\C[C@@H]1[C@@H](/C=C/[C@@H](O)COc2cccc(C(F)(F)F)c2)[C@H](O)C[C@@H]1O [Travoprost]
Tg [4, 6]: −21.9 ± 0.6 °C
ΔCp normalized to travoprost content [4, 6]: −0.57 ± 0.05 J/g/K
Tg ([4]; Travoprost:Excipient mass ratio 1:0 (travoprost alone), n = 3, listed as travoprost): around −22 °C
Tg [4, 7]: −54.4 ± 0.6 °C
ΔCp normalized to travoprost content [4, 7]: −2.04 ± 0.06 J/g/K
Tg [4, 8]: −58.8 ± 0.7 °C
ΔCp normalized to travoprost content [4, 8]: −2.96 ± 0.07 J/g/K
Tg [4, 9]: −44.2 ± 0.7 °C
ΔCp normalized to travoprost content [4, 9]: −1.32 ± 0.06 J/g/K
Tg [4, 10]: −21.4 ± 0.6 °C
ΔCp normalized to travoprost content [4, 10]: −0.60 ± 0.05 J/g/K
Tg [4, 11]: −22.3 ± 0.7 °C
ΔCp normalized to travoprost content [4, 11]: −0.55 ± 0.05 J/g/K
Tg [4, 12]: −20.3 ± 0.6 °C
ΔCp normalized to travoprost content [4, 12]: −0.58 ± 0.06 J/g/K
shift in the Tg ([4]; in presence of PS80, when increasing the excipient content): −22 to −58 °C

c1cc2ccc3cccc4ccc(c1)c2c34 [pyrene, Pyrene]
LogP [5]: 6.0

— paper PMC8877962, “New Preservative-Free Formulation for the Enhanced Ocular Bioavailability of Prostaglandin Analogues in Glaucoma” (Pharmaceutics, 2022)
